Here are results for three molecules from publication PMC4721923 (PLoS ONE, 2015).

For data set [1], the system named is OCT3. Also on record: method as in PMID 23506881. As to conditions: cited from earlier work.
The target of data set [2] is T1, OCT1 (Homo sapiens, UniProt O15245).
T1 construct: containing the full length SLC22A1 cDNA (NM_003057) encoding the human OCT1 protein; expressed in transfected cells
T1 sequence (O15245 1-554): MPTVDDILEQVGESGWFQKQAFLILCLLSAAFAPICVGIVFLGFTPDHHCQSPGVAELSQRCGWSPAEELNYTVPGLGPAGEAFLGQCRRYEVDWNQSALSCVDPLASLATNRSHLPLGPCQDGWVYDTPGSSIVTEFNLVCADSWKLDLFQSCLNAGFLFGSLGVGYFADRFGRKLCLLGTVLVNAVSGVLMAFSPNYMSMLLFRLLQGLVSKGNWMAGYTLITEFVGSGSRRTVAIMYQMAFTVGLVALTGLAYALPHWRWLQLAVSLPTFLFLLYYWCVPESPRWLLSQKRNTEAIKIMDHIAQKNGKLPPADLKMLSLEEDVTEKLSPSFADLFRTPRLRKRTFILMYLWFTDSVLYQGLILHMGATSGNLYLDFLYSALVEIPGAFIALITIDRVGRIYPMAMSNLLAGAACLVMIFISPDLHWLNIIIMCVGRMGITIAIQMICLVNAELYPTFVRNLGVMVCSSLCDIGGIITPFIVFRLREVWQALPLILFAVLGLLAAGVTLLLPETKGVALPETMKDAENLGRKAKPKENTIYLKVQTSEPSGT
Kind of data set: Flow cytometric ASP+-uptake inhibition, HEK-OCT1. The format is cell-based. As to conditions: HEK-OCT1; 1 μM ASP+; ± SEM (N = 3); read-out: IC50, inhibition of ASP+-uptake. The procedure:
(§1) The previously described fluorescent substrate of organic cation transporters, 4-(4-dimethylaminostyryl)-N-methylpyridinium (ASP^+), was used to determine the function of OCT1 and OCT3 by flow cytometry in the absence and the presence of bendamustine and selected bendamustine esters. HEK293 cells expressing the transporter of interest were trypsinized and washed twice with PBS, prior to re-suspension of 0.5 · 10^6 cells in 500 μL of PBS containing 2% (v/v) FCS. The cells were incubated with ASP^+ (100 μM stock solution in PBS containing 10% DMSO) for 5 minutes, allowing for cellular accumulation, and subsequently analyzed with a FACSCalibur flow cytometer. ASP^+ was excited at 488 nm and the fluorescence was measured using a 530/30 nm and a 585/42 band-pass filter. At least 1 · 10^4 single cells were analyzed by appropriate FSC/SSC gating.
(§2) The cells were pre-incubated with the respective test compound at different concentrations at room temperature for 10 minutes. Afterwards, ASP^+ was added to a final concentration of 1 μM, and the samples were incubated at 37°C in the dark for 5 minutes. Subsequently, the cells were washed, re-suspended in ice-cold PBS/FCS and stored on ice in the dark until measurement.
(§3) The normalized mean fluorescence intensities of the OCT expressing cells, set to 100% in the absence of an inhibitor, were calculated by subtracting the mean fluorescence intensity of unspecific ASP^+ uptake into HEK-Co control cells. The normalized fluorescence intensities in the presence of an inhibitor were plotted against the logarithm of the concentrations of the test compounds to calculate IC50 values. The “log (inhibitor) vs. normalized response-variable slope” equation of GraphPad Prism 5.01 was used for this purpose.
For orientation: Flow cytometry measures light scatter and fluorescence of single cells or particles in a stream.

Data set [3] has as its target T1, OCT1. Details: method as in PMID 15389554. As to conditions: microtiter assay; cited from earlier work.
The target of data set [4] is T2, OCT3 (Homo sapiens, UniProt O75751).
T2 construct: expressed in transfected cells; host or cells: HEK293 (HEK-OCT3)
T2 sequence (O75751 1-556): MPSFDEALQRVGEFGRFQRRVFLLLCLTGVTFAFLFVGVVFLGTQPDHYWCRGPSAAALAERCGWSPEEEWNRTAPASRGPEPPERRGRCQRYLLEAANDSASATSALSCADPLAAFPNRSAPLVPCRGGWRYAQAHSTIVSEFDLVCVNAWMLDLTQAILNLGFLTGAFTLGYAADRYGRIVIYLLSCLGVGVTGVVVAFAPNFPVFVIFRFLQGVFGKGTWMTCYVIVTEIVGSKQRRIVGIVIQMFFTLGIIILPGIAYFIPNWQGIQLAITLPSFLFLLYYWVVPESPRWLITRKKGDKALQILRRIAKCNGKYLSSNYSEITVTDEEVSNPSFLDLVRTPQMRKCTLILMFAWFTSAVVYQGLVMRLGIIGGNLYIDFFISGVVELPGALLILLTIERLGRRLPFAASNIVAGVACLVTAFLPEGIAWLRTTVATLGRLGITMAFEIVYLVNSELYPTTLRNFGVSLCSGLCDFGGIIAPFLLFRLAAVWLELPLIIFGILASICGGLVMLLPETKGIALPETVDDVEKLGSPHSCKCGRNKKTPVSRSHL
Nature of the data set: Confocal laser scanning microscopy of ASP+ uptake, HEK-OCT3. The format is cell-based. The settings on record: compound 5 15 μM; TPA 200 μM; ASP+ 1 μM. How it is done:
(§4) HEK-Co, HEK-OCT1 and HEK-OCT3 cells were seeded into 8-well μ-Slides (Ibidi, Munich, Germany) (2 · 10^4 cells/well) and allowed to attach for 48 hours. Prior to the staining procedure, the medium was replaced by PBS and the DNA probe Draq5 (5 μM) (Biostatus, Shepshed, UK) was added to each well. […] Subsequently, ASP^+ was added to reach a concentration of 1 μM, and the cells were incubated for 5 minutes in the dark. Imaging was performed with an Axiovert 200 M confocal microscope coupled to a Zeiss LSM 510 scanning device (Carl Zeiss, Oberkochen, Germany) using a Plan-Apochromat 63x/1.40 oil immersion objective. Draq5 was excited at 633 nm and fluorescence was detected using a 650 nm long-pass filter, ASP^+ was excited at 488 nm and detected using a 565/35 nm band-pass filter.

In data set [5] the target is T1, OCT1. Kind of data set: Confocal laser scanning microscopy of ASP+ uptake, HEK-OCT1. The format is cell-based. The settings on record: compound 5 15 μM; TPA 200 μM; ASP+ 1 μM. How it is done:
as §4

Data set [6] has as its system OCT3. Details: method as in PMID 23982114. The settings on record: microtiter assay; cited from earlier work.
Data set [7] concerns the target T2, OCT3. Nature of the data set: Flow cytometric ASP+-uptake inhibition, HEK-OCT3. The format is cell-based. As to conditions: HEK-OCT3; 1 μM ASP+; ± SEM (N = 3); read-out: IC50, inhibition of ASP+-uptake. The procedure: as §1, §2, §3
Data set [8] has as its system OCT1. As to conditions: cited from earlier work.

The structures appear in SMILES notation. Where “and” joins values, the source holds several entries; their conditions need not be identical. Identical values can stand only once. Like-named read-outs stand apart in the source and are kept apart here.

In general, IC50 refers to the point on the concentration scale where inhibition reaches its midpoint. With `O=C1c2c(O)ccc(O)c2C(=O)c2c(NCCNCCO)ccc(NCCNCCO)c21` [mitoxantrone], in data set [1], the IC50 was 440 µM.

As for `CCCCC[N+](CCCCC)(CCCCC)CCCCC` [TPA, tetrapentyl ammonium, reference compound], the IC50 in data set [2] was 6.04 µM and 6 µM; in data set [3], 7.9 µM; in data set [6], 28 µM; in data set [7] it was 19.9 ± 2.2 µM. For the same molecule, in data set [4], the “effect on OCT3 activity (ASP+ uptake, imaging)” value is reported as “inhibited”. Besides, in data set [5], the “effect on OCT1 activity (ASP+ uptake, imaging)” value is listed as “inhibited”.

Regarding `N.N.[Cl][Pt][Cl]` [cisplatin], the IC50 in data set [8] is over 100 µM.
